Assay results published in patent publication US4096263A, “1,2,3,4-Tetrahydroisoquinolines and the preparation thereof” (Fujisawa Pharmaceutical Co., Ltd., priority 1975, dated 1978).
Structures can show the parent of a compound that is named as a salt.

Test system: jejunum of the dog
Assay: Intestinal Motility in Dogs (balloon at the jejunum, inhibition of motility in anesthetized mongrel dogs)
Format: in vivo
Method: Intestinal Motility in Dogs Method: Mongrel dogs weighing 8 to 16 kg which were withheld from any food and water for 24 hours were anesthetized with a combination of urethane (1.5 g/kg) and morphine (15 mg/kg). A balloon was placed at the jejunum of the dog, compressed at a pressure of 10 cm. H2 O, and connected to a strain gauge. Changes in the motility were mainly recorded in terms of amplitude, but taking account of the number of movements. The maximum change of all the determinations, served as the calculation of the 50% inhibition dose (ED50). The time required for 80% recovery was considered as a duration of action.

Cn1nnnc1NCC1NCCc2cc(O)c(O)cc21 (centres unmarked) [Test Compound, 1-(1-Methyl-1H-tetrazol-5-yl)aminomethyl-6,7-dihydroxy-1,2,3,4-tetrahydroisoquinoline hydrochloride trihemihydrate]
ED50 (Canis lupus familiaris, anesthetized mongrel dogs (urethane 1.5 g/kg and morphine 15 mg/kg), jejunal balloon at 10 cm. H2O, maximum change of motility, mainly amplitude, route not stated, read-out: ED50 (50% inhibition dose)): 1 µg/kg | Duration of Action (time required for 80% recovery, anesthetized mongrel dogs, jejunal balloon, dose and route not stated): 25 min
